Test results: US9206219B2, “17-hydroxy-17-pentafluorethyl-estra-4,9(10)-dien-11-aryl derivatives, methods for the production thereof and the use thereof for treating diseases” (Bayer Intellectual Property GmbH, priority 2009, dated 2015)

Columns and labels:
[1] = target: T1, human progesterone receptor B (Homo sapiens, UniProt P06401); test: Progesterone receptor-antagonistic action in stably transfected SK-N-MC cells, MMTV-LUC reporter (PR-B); type: cell-based; conditions: antagonistic potency vs 0.1 nmol/l promegestone, 24 hours
T1 construct: expressed in transfected cells; host or cells: SK-N-MC human neuroblastoma cells, stably transfected with pRChPR-B-neo and pMMTV-LUC
T1 sequence (P06401 1-933): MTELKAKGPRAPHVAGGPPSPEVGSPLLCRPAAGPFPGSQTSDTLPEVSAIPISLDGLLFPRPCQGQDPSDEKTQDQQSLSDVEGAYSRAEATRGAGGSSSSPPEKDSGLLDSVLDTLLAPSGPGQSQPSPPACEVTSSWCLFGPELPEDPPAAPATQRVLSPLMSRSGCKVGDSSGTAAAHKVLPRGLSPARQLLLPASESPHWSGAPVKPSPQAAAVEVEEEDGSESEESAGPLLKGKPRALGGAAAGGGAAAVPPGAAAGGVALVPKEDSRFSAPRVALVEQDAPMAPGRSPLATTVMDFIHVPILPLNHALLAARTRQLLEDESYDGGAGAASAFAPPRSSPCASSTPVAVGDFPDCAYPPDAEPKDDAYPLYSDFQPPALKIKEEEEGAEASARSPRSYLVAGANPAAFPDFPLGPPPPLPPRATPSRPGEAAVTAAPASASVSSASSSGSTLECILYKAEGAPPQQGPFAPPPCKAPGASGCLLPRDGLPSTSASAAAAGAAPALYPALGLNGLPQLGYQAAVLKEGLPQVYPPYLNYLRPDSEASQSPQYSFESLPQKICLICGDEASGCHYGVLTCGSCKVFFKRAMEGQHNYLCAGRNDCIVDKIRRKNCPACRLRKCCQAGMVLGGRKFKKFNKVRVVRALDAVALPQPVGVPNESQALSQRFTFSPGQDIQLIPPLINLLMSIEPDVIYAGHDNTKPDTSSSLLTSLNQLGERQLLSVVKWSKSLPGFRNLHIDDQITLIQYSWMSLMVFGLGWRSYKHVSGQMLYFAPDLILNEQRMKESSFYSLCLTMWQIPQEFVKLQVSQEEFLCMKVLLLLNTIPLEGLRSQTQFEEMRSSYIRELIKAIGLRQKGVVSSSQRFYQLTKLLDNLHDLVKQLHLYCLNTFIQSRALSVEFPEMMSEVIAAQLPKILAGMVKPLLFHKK
Description: (§1) Progesterone Receptor-Antagonistic Action in Stable Transfectants of Human Neuroblastoma Cells (SK-N-MC Cells) with the Human Progesterone A or Progesterone B Receptor and an MN-LUC Reporter Construct
(§2) SK-N-MC cells (human neuroblastoma cells) which have been stably transfected with plasmids expressing the human progesterone receptor B (pRChPR-B-neo) or the human progesterone receptor A (pRChPR-A-neo) and a reporter construct (pMMTV-LUC) were incubated for 24 hours either in the absence (negative control) or in the presence of ascending amounts of the particular test compound (0.01 nmol/l, 0.1 nmol/l, 1 nmol/l, 10 nmol/l, 100 nmol/l and […]), in order to determine the agonistic efficacy. As a positive control of the reporter gene induction, the cells were treated with the synthetic gestagen promegestone (0.01 nmol/l, 0.1 nmol/l, 1 nmol/l, 10 nmol/l, 100 nmol/l and […]). To determine the antagonistic activity, the cells were treated with 0.1 nmol/l promegestone and additionally with ascending amounts of the particular test compound (0.01 nmol/l, 0.1 nmol/l, 1 nmol/l, 10 nmol/l, 100 nmol/l and […]). The activity of the reporter gene LUC (LUC=luciferase) was determined in the cell lysates and measured as RLU (relative light units). All measurements are reported as % efficacy and as EC50 and IC50 concentrations.

[2] = target: T2, human progesterone receptor A (Homo sapiens, UniProt P06401); test: Progesterone receptor-antagonistic action in stably transfected SK-N-MC cells, MMTV-LUC reporter (PR-A); type: cell-based; conditions: antagonistic potency vs 0.1 nmol/l promegestone, 24 hours
T2 construct: expressed in transfected cells; host or cells: SK-N-MC human neuroblastoma cells, stably transfected with pRChPR-A-neo and pMMTV-LUC
T2 sequence (P06401 1-769 isoform P06401-2): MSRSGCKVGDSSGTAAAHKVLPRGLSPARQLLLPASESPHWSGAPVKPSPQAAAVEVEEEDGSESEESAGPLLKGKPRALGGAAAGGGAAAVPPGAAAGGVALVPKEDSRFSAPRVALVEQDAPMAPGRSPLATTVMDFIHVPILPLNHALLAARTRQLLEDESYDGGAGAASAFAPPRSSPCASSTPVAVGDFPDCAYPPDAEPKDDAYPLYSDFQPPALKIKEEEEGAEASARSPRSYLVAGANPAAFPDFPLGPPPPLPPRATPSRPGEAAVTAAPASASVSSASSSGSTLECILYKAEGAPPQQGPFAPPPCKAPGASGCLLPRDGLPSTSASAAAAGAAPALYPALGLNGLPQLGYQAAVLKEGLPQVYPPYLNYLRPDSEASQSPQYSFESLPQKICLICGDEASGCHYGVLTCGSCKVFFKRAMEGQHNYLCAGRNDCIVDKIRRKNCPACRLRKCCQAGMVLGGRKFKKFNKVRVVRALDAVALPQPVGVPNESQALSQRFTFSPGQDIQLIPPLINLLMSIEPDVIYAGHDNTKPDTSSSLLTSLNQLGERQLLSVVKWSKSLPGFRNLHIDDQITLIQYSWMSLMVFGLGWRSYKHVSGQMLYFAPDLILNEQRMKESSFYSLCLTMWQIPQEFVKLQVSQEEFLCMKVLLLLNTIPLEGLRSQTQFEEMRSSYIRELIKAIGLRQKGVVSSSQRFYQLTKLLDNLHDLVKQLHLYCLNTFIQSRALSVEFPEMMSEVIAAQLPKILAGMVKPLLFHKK
Description: as §1, §2

SMILES | IC50 [1] [nM] | IC50 [2] [nM]
CC(O)c1cccc([C@H]2C[C@@]3(C)C(CC[C@@]3(O)C(F)(F)C(F)(F)F)C3CCC4=CC(=O)CCC4=C32)c1 (mixture of isomers) [Example 11, (8S,11R,13S,14S,17S)-17-hydroxy-11-[3-((RS)-1-hydroxyethyl)phenyl]-13-methyl-17-pentafluoroethyl-1,2,6,7,8,11,12,13,14,15,16,17-dodecahydrocyclopenta[a]phenanthren-3-one] | 3 | 2
CC(=O)c1cccc([C@H]2C[C@@]3(C)[C@@H](CC[C@@]3(O)C(F)(F)C(F)(F)F)[C@@H]3CCC4=CC(=O)CCC4=C32)c1 [Example 10, (8S,11R,13S,14S,17S)-11-(3-acetylphenyl)-17-hydroxy-13-methyl-17-pentafluoroethyl-1,2,6,7,8,11,12,13,14,15,16,17-dodecahydrocyclopenta[a]phenanthren-3-one] | 3 | 5
C[C@]12C[C@H](c3cccc(C4CC4)c3)C3=C4CCC(=O)C=C4CC[C@H]3[C@@H]1CC[C@@]2(O)C(F)(F)C(F)(F)F [Example 12, (8S,11R,13S,14S,17S)-11-(3-cyclopropylphenyl)-17-hydroxy-13-methyl-17-pentafluoroethyl-1,2,6,7,8,11,12,13,14,15,16,17-dodecahydrocyclopenta[a]phenanthren-3-one] | 9 | 4
CC1(c2cccc([C@H]3C[C@@]4(C)[C@@H](CC[C@@]4(O)C(F)(F)C(F)(F)F)[C@@H]4CCC5=CC(=O)CCC5=C43)c2)CC1 [Example 13, (8S,11R,13S,14S,17S)-17-hydroxy-13-methyl-11-[3-(1-methylcyclopropyl)phenyl]-17-pentafluoroethyl-1,2,6,7,8,11,12,13,14,15,16,17-dodecahydrocyclopenta[a]phenanthren-3-one] | 7 | 4
CC(C)(C)NC(=O)NCc1ccc([C@H]2C[C@@]3(C)[C@@H](CC[C@@]3(O)C(F)(F)C(F)(F)F)[C@@H]3CCC4=CC(=O)CCC4=C32)cc1 [Example 20, 1-tert-butyl-3-[4-((8S,11R,13S,14S,17S)-17-hydroxy-13-methyl-3-oxo-17-pentafluoroethyl-2,3,6,7,8,11,12,13,14,15,16,17-dodecahydro-1H-cyclopenta[a]phenanthren-11-yl)benzyl]urea] | 1 | 0.7
CCOC(=O)CNC(=O)NCc1ccc([C@H]2C[C@@]3(C)[C@@H](CC[C@@]3(O)C(F)(F)C(F)(F)F)[C@@H]3CCC4=CC(=O)CCC4=C32)cc1 [Example 21, {3-[4-((8S,11R,13S,14S,17S)-17-hydroxy-13-methyl-3-oxo-17-pentafluoroethyl-2,3,6,7,8,11,12,13,14,15,16,17-dodecahydro-1H-cyclopenta[a]phenanthren-11-yl)benzyl]ureido}acetic acid ethyl ester] | 2.4 | 1.2

The remaining lines, values ahead:

IC50 [1] [nM] | IC50 [2] [nM] | SMILES
0.1 | 0.1 | C[C@]12C[C@H](c3ccc([C@@H]4CC4CO)cc3)C3=C4CCC(=O)C=C4CCC3C1CC[C@@]2(O)C(F)(F)C(F)(F)F (single isomer, unassigned) [Example 6A]
0.004 | < 0.001 | C[C@]12C[C@H](c3ccc(C4CC4)cc3)C3=C4CCC(=O)C=C4CC[C@H]3[C@@H]1CC[C@@]2(O)C(F)(F)C(F)(F)F [Example 1, (8S,11R,13S,14S,17S)-11-(4-cyclopropylphenyl)-17-hydroxy-13-methyl-17-pentafluoroethyl-1,2,6,7,8,11,12,13,14,15,16,17-dodecahydrocyclopenta[a]phenanthren-3-one]
1 | 1 | C[C@]12C[C@H](c3cccc(CCO)c3)C3=C4CCC(=O)C=C4CC[C@H]3[C@@H]1CC[C@@]2(O)C(F)(F)C(F)(F)F [Example 14, (8S,11R,13S,14S,17S)-17-hydroxy-11-[3-(2-hydroxyethyl)phenyl]-13-methyl-17-pentafluoroethyl-1,2,6,7,8,11,12,13,14,15,16,17-dodecahydrocyclopenta[a]phenanthren-3-one]
1 | 0.8 | C[C@]12C[C@H](c3ccc(C(CO)CO)cc3)C3=C4CCC(=O)C=C4CC[C@H]3[C@@H]1CC[C@@]2(O)C(F)(F)C(F)(F)F [Example 16, (8S,11R,13S,14S,17S)-17-hydroxy-11-[4-(2-hydroxy-1-hydroxymethylethyl)phenyl]-13-methyl-17-pentafluoroethyl-1,2,6,7,8,11,12,13,14,15,16,17-dodecahydrocyclopenta[a]phenanthren-3-one]
0.8 | 0.8 | C=CCNC(=O)NCc1ccc([C@H]2C[C@@]3(C)[C@@H](CC[C@@]3(O)C(F)(F)C(F)(F)F)[C@@H]3CCC4=CC(=O)CCC4=C32)cc1 [Example 18, 1-allyl-3-[4-((8S,11R,13S,14S,17S)-17-hydroxy-13-methyl-3-oxo-17-pentafluoroethyl-2,3,6,7,8,11,12,13,14,15,16,17-dodecahydro-1H-cyclopenta[a]phenanthren-11-yl)benzyl]urea]
0.7 | 0.6 | CC(C)NC(=O)NCc1ccc([C@H]2C[C@@]3(C)[C@@H](CC[C@@]3(O)C(F)(F)C(F)(F)F)[C@@H]3CCC4=CC(=O)CCC4=C32)cc1 [Example 19, 1-isopropyl-3-[4-((8S,11R,13S,14S,17S)-17-hydroxy-13-methyl-3-oxo-17-pentafluoroethyl-2,3,6,7,8,11,12,13,14,15,16,17-dodecahydro-1H-cyclopenta[a]phenanthren-11-yl)benzyl]urea]
0.6 | 0.5 | CCOC(=O)CCNC(=O)NCc1ccc([C@H]2C[C@@]3(C)[C@@H](CC[C@@]3(O)C(F)(F)C(F)(F)F)[C@@H]3CCC4=CC(=O)CCC4=C32)cc1 [Example 22, 3-{3-[4-((8S,11R,13S,14S,17S)-17-hydroxy-13-methyl-3-oxo-17-pentafluoroethyl-2,3,6,7,8,11,12,13,14,15,16,17-dodecahydro-1H-cyclopenta[a]phenanthren-11-yl)benzyl]ureido}propionic acid ethyl ester]
0.6 | 0.3 | Cc1ccc(NC(=O)NCc2ccc([C@H]3C[C@@]4(C)[C@@H](CC[C@@]4(O)C(F)(F)C(F)(F)F)[C@@H]4CCC5=CC(=O)CCC5=C43)cc2)cc1 [Example 25, 1-[4-((8S,11R,13S,14S,17S)-17-hydroxy-13-methyl-3-oxo-17-pentafluoroethyl-2,3,6,7,8,11,12,13,14,15,16,17-dodecahydro-1H-cyclopenta[a]phenanthren-11-yl)benzyl]-3-p-tolylurea]
